Earlier results on one compound are cited in PubChem BioAssay AID1259409 (Chemical Carcinogenesis Research Information System (CCRIS), 2018).

The data set has as its system rodent chemically induced tumor inhibition, incidence and multiplicity. Briefly: CCRIS tumor inhibitor studies. The settings on record: for tumour outcome (control, treated, inhibition, significance): Carcinogen: N-BUTYL-N-N(4-4-HYDROXYBUTYL)-NITROSAMINE [3817-11-6], Route [Inhibitor]: ORAL, Target Tissue: Type of Lesion: URINARY BLADDER: TUMOR, Promoter: NONE.

In the case of `Cc1ccc(-c2cc(C(F)(F)F)nn2-c2ccc(S(N)(=O)=O)cc2)cc1`, the “tumour outcome (control, treated, inhibition, significance)” value runs as follows: (Dose [Inhibitor]: 200 MG/KG IN DIET FOR 36 WK BEGINNING 1 WK PRIOR TO FIRST CARCINOGEN DOSE (STUDY DURATION: 36 WK), Species: MOUSE, Strain/Sex: B6D2F1/MALE, Dose [Carcinogen]: 7.5 MG IN 0.1 ML 20% ETHANOL 1X/WK FOR 12 WK (STUDY DURATION: 36 WK)) 51%, 29%, 43%, significance level not shown; (Dose [Inhibitor]: 500 MG/KG IN DIET FOR 27 WK BEGINNING 1 WK POST LAST CARCINOGEN DOSE (STUDY DURATION: 8 MONTHS), Species: RAT, Strain/Sex: F344/FEMALE, Dose [Carcinogen]: 150 MG IN 0.5 ML 20% ETHANOL 2X/WK FOR 8 WK (STUDY DURATION: 8 MONTHS)) 57%, 4%, 93%, significance level not shown; (Dose [Inhibitor]: 500 MG/KG IN DIET FOR 36 WK BEGINNING 1 WK PRIOR TO FIRST CARCINOGEN DOSE (STUDY DURATION: 36 WK), Species: MOUSE, Strain/Sex: B6D2F1/MALE, Dose [Carcinogen]: 7.5 MG IN 0.1 ML 20% ETHANOL 1X/WK FOR 12 WK (STUDY DURATION: 36 WK)) 51%, 24%, 53%, significance level not shown; (Dose [Inhibitor]: 500 MG/KG IN DIET FOR 36 WK BEGINNING 1 WK PRIOR TO FIRST CARCINOGEN DOSE (STUDY DURATION: 36 WK), Species: RAT, Strain/Sex: F344/FEMALE, Dose [Carcinogen]: 150 MG IN 0.5 ML 20% ETHANOL 2X/WK FOR 8 WK (STUDY DURATION: 36 WK)) 17/30 (57%), 4/28 (14%), 75%, significance level not shown; (Dose [Inhibitor]: 1000 MG/KG IN DIET FOR 27 WK BEGINNING 1 WK POST LAST CARCINOGEN DOSE (STUDY DURATION: 8 MONTHS), Species: RAT, Strain/Sex: F344/FEMALE, Dose [Carcinogen]: 150 MG IN 0.5 ML 20% ETHANOL 2X/WK FOR 8 WK (STUDY DURATION: 8 MONTHS)) 57%, 0%, 100%, significance level not shown; (Dose [Inhibitor]: 1000 MG/KG IN DIET FOR 36 WK BEGINNING 1 WK PRIOR TO FIRST CARCINOGEN DOSE (STUDY DURATION: 36 WK), Species: RAT, Strain/Sex: F344/FEMALE, Dose [Carcinogen]: 150 MG IN 0.5 ML 20% ETHANOL 2X/WK FOR 8 WK (STUDY DURATION: 36 WK)) 17/30 (57%), 6/29 (21%), 63%, significance level not shown. The “tumour outcome (control, treated, inhibition, significance)” value (Dose [Inhibitor]: 1250 MG/KG IN DIET FOR 36 WK BEGINNING 1 WK PRIOR TO FIRST CARCINOGEN DOSE (STUDY DURATION: 36 WK), Species: MOUSE, Strain/Sex: B6D2F1/MALE, Dose [Carcinogen]: 7.5 MG IN 0.1 ML 20% ETHANOL 1X/WK FOR 12 WK (STUDY DURATION: 36 WK)) is on record as 51%, 12%, 76%, significance level not shown. For the same compound, for the setting “Carcinogen: N-nitrosodiethylamine (55-18-5), Dose [Inhibitor]: 1500 mg/kg in diet for 38 wk, study duration 38 wk, Route [Inhibitor]: Oral, Species: Rat, Strain/Sex: Wistar/Male, Target Tissue: Type of Lesion: Liver: Neoplasia, Dose [Carcinogen]: 100 mg/l in drinking water for 4 mo, Promoter: None”, the outcome is on record as 91.7, 65.2, p<0.05.
